In assay [1] the test system is pentobarbital anaesthetized rats subject to coronary artery occlusion. The following applies: rat, in vivo.
The test system of assay [2] is pentobarbital anaesthetized rats. The following applies: rat, in vivo.

Structures can show the parent of a compound that is named as a salt.

As to `C=CCN1CC[C@]23c4c5ccc(O)c4O[C@H]2C(=O)CC[C@@]3(O)[C@H]1C5` [naloxone, naloxone hydrochloride], in assay [1], the “incidence of VF arrhythmias” value is recorded as “slightly decreased”. In assay [2], this molecule showed a BP of 103±5, an HR of 379±6, a PR of 57±1 and a QRS of 29±1. This molecule also had a QT in assay [2] of 41±1.

The values above are taken from patent publication EP0632806B1 (priority 1992, dated 1993).
